Measurements taken from ChEMBL document CHEMBL1201861, “Genomics of Drug Sensitity in Cancer screening data, Wellcome Trust Sanger Institute”.
pIC50: −log10 of the molar value.

What was measured:
Experiment in all cases: cells
Conditions in all cases: Homo sapiens
KE-37 = type: functional, cell-based;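 further: growth inhibition of KE-37 cells, read out with a cell viability assay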
Description: SANGER: Inhibition of human KE-37 cell growth in a cell viability assay.

LS-1034 = type: functional, cell-based
Description: SANGER: Inhibition of human LS-1034 cell growth in a cell viability assay.

LB373-MEL-D = type: functional, cell-based;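 further: growth inhibition of the cell line, read out in a cell viability assay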
Description: SANGER: Inhibition of human LB373-MEL-D cell growth in a cell viability assay.

IST-MES1 = type: functional, cell-based;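 further: growth inhibition of IST-MES1 cells, measured with a cell viability assay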
Description: SANGER: Inhibition of human IST-MES1 cell growth in a cell viability assay.

MHH-NB-11 = type: functional, cell-based;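 further: growth inhibition of human MHH-NB-11 cells, read out by a cell viability assay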
Description: SANGER: Inhibition of human MHH-NB-11 cell growth in a cell viability assay.

ML-2 = type: functional, cell-based;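 further: growth inhibition of ML-2 cells, measured with a cell viability readout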
Description: SANGER: Inhibition of human ML-2 cell growth in a cell viability assay.

SF-126 = type: functional, cell-based;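 further: growth inhibition of human SF126 cells, read out with a cell viability assay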
Description: SANGER: Inhibition of human SF126 cell growth in a cell viability assay.

HL-60 = type: functional, cell-based;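 further: growth inhibition of human HL-60 cells, read out with a cell viability assay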
Description: SANGER: Inhibition of human HL-60 cell growth in a cell viability assay.

CTB-1 = type: functional, cell-based
Description: SANGER: Inhibition of human CTB-1 cell growth in a cell viability assay.

ES7 = type: functional, cell-based;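 further: growth inhibition of cultured human ES7 cells, read out as cell viability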
Description: SANGER: Inhibition of human ES7 cell growth in a cell viability assay.

MZ2-MEL = type: functional, cell-based;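 further: growth inhibition of MZ2-MEL cells read out with a cell viability assay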
Description: SANGER: Inhibition of human MZ2-MEL cell growth in a cell viability assay.

LAMA-84 = type: functional, cell-based;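 further: growth inhibition of LAMA-84 cells, read out with a cell viability assay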
Description: SANGER: Inhibition of human LAMA-84 cell growth in a cell viability assay.

HCE-T = type: functional, cell-based;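 further: cell viability assay read-out, reporting inhibition of HCE-T cell growth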
Description: SANGER: Inhibition of human HCE-T cell growth in a cell viability assay.

NCI-H2126 = type: functional, cell-based;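 further: growth inhibition of the cancer cell line, determined with a cell viability readout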
Description: SANGER: Inhibition of human NCI-H2126 cell growth in a cell viability assay.

MFH-ino = type: functional, cell-based;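 further: growth inhibition of human MFH-ino cells, read out by a cell viability assay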
Description: SANGER: Inhibition of human MFH-ino cell growth in a cell viability assay.

HD-MY-Z = type: functional, cell-based;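 further: growth inhibition of HD-MY-Z cells, read out with a cell viability assay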
Description: SANGER: Inhibition of human HD-MY-Z cell growth in a cell viability assay.

DSH1 = type: functional, cell-based;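 further: growth inhibition of human DSH1 cells, measured with a cell viability readout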
Description: SANGER: Inhibition of human DSH1 cell growth in a cell viability assay.

D-263MG = type: functional, cell-based
Description: SANGER: Inhibition of human D-263MG cell growth in a cell viability assay.

NCI-H747 = type: functional, cell-based;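 further: growth inhibition of human NCI-H747 cells, read out by a cell viability assay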
Description: SANGER: Inhibition of human NCI-H747 cell growth in a cell viability assay.

SF-268 = type: functional, cell-based;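 further: growth inhibition of SF-268 cells determined with a cell viability assay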
Description: SANGER: Inhibition of human SF268 cell growth in a cell viability assay.

K562 = type: functional, cell-based
Description: SANGER: Inhibition of human K-562 cell growth in a cell viability assay.

ETK-1 = type: functional, cell-based;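 further: growth inhibition of human ETK-1 cells, read out with a cell viability assay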
Description: SANGER: Inhibition of human ETK-1 cell growth in a cell viability assay.

GT3TKB = type: functional, cell-based;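 further: growth inhibition of the cell line, read out with a cell viability assay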
Description: SANGER: Inhibition of human GT3TKB cell growth in a cell viability assay.

NKM-1 = type: functional, cell-based;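 further: growth inhibition of NKM-1 cells, read out with a cell viability assay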
Description: SANGER: Inhibition of human NKM-1 cell growth in a cell viability assay.

PSN1 = type: functional, cell-based;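 further: suppression of growth of human PSN1 cells, read out by a cell viability assay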
Description: SANGER: Inhibition of human PSN1 cell growth in a cell viability assay.

TE-5 = type: functional, cell-based;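 further: inhibition of cell growth, read out by a cell viability assay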
Description: SANGER: Inhibition of human TE-5 cell growth in a cell viability assay.

EC-GI-10 = type: functional, cell-based
Description: SANGER: Inhibition of human EC-GI-10 cell growth in a cell viability assay.

BT-474 = type: functional, cell-based
Description: SANGER: Inhibition of human BT-474 cell growth in a cell viability assay.

HC-1 = type: functional, cell-based;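 further: growth inhibition of HC-1 cells measured by a cell viability assay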
Description: SANGER: Inhibition of human HC-1 cell growth in a cell viability assay.

EW-11 = type: functional, cell-based;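 further: growth inhibition of human EW-11 cells, measured with a cell viability assay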
Description: SANGER: Inhibition of human EW-11 cell growth in a cell viability assay.

NCI-H1355 = type: functional, cell-based;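 further: growth inhibition of human NCI-H1355 cells, read out by a cell viability assay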
Description: SANGER: Inhibition of human NCI-H1355 cell growth in a cell viability assay.

DOHH-2 = type: functional, cell-based;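 further: growth inhibition of human DOHH-2 cells, read out with a cell viability assay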
Description: SANGER: Inhibition of human DOHH-2 cell growth in a cell viability assay.

ONS-76 = type: functional, cell-based;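 further: growth inhibition of human ONS-76 cells, read out with a cell viability assay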
Description: SANGER: Inhibition of human ONS-76 cell growth in a cell viability assay.

LU-134-A = type: functional, cell-based
Description: SANGER: Inhibition of human LU-134-A cell growth in a cell viability assay.

HT = type: functional, cell-based
Description: SANGER: Inhibition of human HT cell growth in a cell viability assay.

NCI-H526 = type: functional, cell-based;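 further: growth inhibition of the human NCI-H526 cell line, measured by a cell viability assay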
Description: SANGER: Inhibition of human NCI-H526 cell growth in a cell viability assay.

MC116 = type: functional, cell-based;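 further: growth inhibition of MC116 cells, read out with a cell viability assay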
Description: SANGER: Inhibition of human MC116 cell growth in a cell viability assay.

VA-ES-BJ = type: functional, cell-based;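 further: growth inhibition of the VA-ES-BJ cell line, read out by a cell viability assay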
Description: SANGER: Inhibition of human VA-ES-BJ cell growth in a cell viability assay.

OVCAR-4 = type: functional, cell-based;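 further: growth inhibition of human OVCAR-4 cells, measured with a cell viability assay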
Description: SANGER: Inhibition of human OVCAR-4 cell growth in a cell viability assay.

NOMO-1 = type: functional, cell-based;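 further: growth inhibition of human NOMO-1 cells measured by a cell viability assay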
Description: SANGER: Inhibition of human NOMO-1 cell growth in a cell viability assay.

KS-1 = type: functional, cell-based;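 further: growth inhibition of KS-1 cells, read out with a cell viability assay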
Description: SANGER: Inhibition of human KS-1 cell growth in a cell viability assay.

L-363 = type: functional, cell-based
Description: SANGER: Inhibition of human L-363 cell growth in a cell viability assay.

COLO-320-HSR = type: functional, cell-based;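 further: growth inhibition of COLO-320-HSR cells, determined with a cell viability assay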
Description: SANGER: Inhibition of human COLO-320-HSR cell growth in a cell viability assay.

LS-411N = type: functional, cell-based
SW 962 = type: functional, cell-based;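 further: growth inhibition of human SW962 cells, read out by a cell viability assay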
Description: SANGER: Inhibition of human SW962 cell growth in a cell viability assay.

SH-4 = type: functional, cell-based;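 further: growth inhibition of SH-4 cells, read out with a cell viability assay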
Description: SANGER: Inhibition of human SH-4 cell growth in a cell viability assay.

J-RT3-T3-5 = type: functional, cell-based;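 further: cell viability assay measuring growth inhibition of human J-RT3-T3-5 cells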
Description: SANGER: Inhibition of human J-RT3-T3-5 cell growth in a cell viability assay.

NMC-G1 = type: functional, cell-based;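 further: growth inhibition of the NMC-G1 cell line, measured with a cell viability read-out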
Description: SANGER: Inhibition of human NMC-G1 cell growth in a cell viability assay.

L-428 = type: functional, cell-based
Description: SANGER: Inhibition of human L-428 cell growth in a cell viability assay.

NCI-H720 = type: functional, cell-based;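 further: growth inhibition of human NCI-H720 cells determined by a cell viability assay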
Description: SANGER: Inhibition of human NCI-H720 cell growth in a cell viability assay.

DU-4475 = type: functional, cell-based
Description: SANGER: Inhibition of human DU-4475 cell growth in a cell viability assay.

GR-ST = type: functional, cell-based
Description: SANGER: Inhibition of human GR-ST cell growth in a cell viability assay.

LXF-289 cell line = type: functional, cell-based
Description: SANGER: Inhibition of human LXF-289 cell growth in a cell viability assay.

MOLT-4 = type: functional, cell-based;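 further: growth inhibition of MOLT-4 cells, determined with a cell viability readout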
Description: SANGER: Inhibition of human MOLT-4 cell growth in a cell viability assay.

BB49-HNC = type: functional, cell-based;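 further: cell viability assay read-out, reported as inhibition of BB49-HNC cell growth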
Description: SANGER: Inhibition of human BB49-HNC cell growth in a cell viability assay.

EM-2 = type: functional, cell-based;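 further: growth inhibition of EM-2 cells, read out with a cell viability assay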
Description: SANGER: Inhibition of human EM-2 cell growth in a cell viability assay.

COLO-829 = type: functional, cell-based
Description: SANGER: Inhibition of human COLO-829 cell growth in a cell viability assay.

EW-16 = type: functional, cell-based;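 further: growth inhibition of human EW-16 cells, read out as cell viability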
Description: SANGER: Inhibition of human EW-16 cell growth in a cell viability assay.

no-10 = type: functional, cell-based;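 further: growth inhibition of no-10 cells, read out with a cell viability assay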
Description: SANGER: Inhibition of human no-10 cell growth in a cell viability assay.

RS4-11 = type: functional, cell-based;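 further: growth inhibition of RS4-11 cells, read out by a cell viability assay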
Description: SANGER: Inhibition of human RS4-11 cell growth in a cell viability assay.

MV4-11 = type: functional, cell-based, MV-4-11;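 further: cell viability readout measuring growth inhibition of human MV-4-11 cells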
Description: SANGER: Inhibition of human MV-4-11 cell growth in a cell viability assay.

C2BBe1 = type: functional, cell-based;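 further: growth inhibition of C2BBe1 cells, read out through a viability assay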
Description: SANGER: Inhibition of human C2BBe1 cell growth in a cell viability assay.

LAN-6 = type: functional, cell-based;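 further: growth inhibition of LAN-6 cells, determined with a cell viability assay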
Description: SANGER: Inhibition of human LAN-6 cell growth in a cell viability assay.

NCI-H82 = type: functional, cell-based
Description: SANGER: Inhibition of human NCI-H82 cell growth in a cell viability assay.

NCI-H1299 = type: functional, cell-based
Description: SANGER: Inhibition of human NCI-H1299 cell growth in a cell viability assay.

MLMA = type: functional, cell-based
Description: SANGER: Inhibition of human MLMA cell growth in a cell viability assay.

SMILES: Cc1[nH]c(/C=C2\C(=O)Nc3ccc(S(=O)(=O)Cc4c(Cl)cccc4Cl)cc32)c(C)c1C(=O)N1CCC[C@@H]1CN1CCCC1 [PHA-665752]
- pIC50 (KE-37): < 5.70
- pIC50 (LS-1034): < 5.70
- pIC50 (LB373-MEL-D): < 5.70
- pIC50 (IST-MES1): < 5.70
- pIC50 (MHH-NB-11): < 5.70
- pIC50 (ML-2): < 5.70
- pIC50 (SF-126): < 5.70
- pIC50 (HL-60): < 5.70
- pIC50 (CTB-1): < 5.70
- pIC50 (ES7): < 5.70
- pIC50 (MZ2-MEL): < 5.70
- pIC50 (LAMA-84): < 5.70
- pIC50 (HCE-T): < 5.70
- pIC50 (NCI-H2126): < 5.70
- pIC50 (MFH-ino): < 5.70
- pIC50 (HD-MY-Z): < 5.70
- pIC50 (DSH1): < 5.70
- pIC50 (D-263MG): < 5.70
- pIC50 (NCI-H747): < 5.70
- pIC50 (SF-268): < 5.70
- pIC50 (K562): < 5.70
- pIC50 (ETK-1): < 5.70
- pIC50 (GT3TKB): < 5.70
- pIC50 (NKM-1): < 5.70
- pIC50 (PSN1): < 5.70
- pIC50 (TE-5): < 5.70
- pIC50 (EC-GI-10): < 5.70
- pIC50 (BT-474): < 5.70
- pIC50 (HC-1): < 5.70
- pIC50 (EW-11): < 5.70
- pIC50 (NCI-H1355): < 5.70
- pIC50 (DOHH-2): < 5.70
- pIC50 (ONS-76): < 5.70
- pIC50 (LU-134-A): < 5.70
- pIC50 (HT): < 5.70
- pIC50 (NCI-H526): < 5.70
- pIC50 (MC116): < 5.70
- pIC50 (VA-ES-BJ): < 5.70
- pIC50 (OVCAR-4): < 5.70
- pIC50 (NOMO-1): < 5.70
- pIC50 (KS-1): < 5.70
- pIC50 (L-363): < 5.70
- pIC50 (COLO-320-HSR): < 5.70
- pIC50 (LS-411N): < 5.70
- pIC50 (SW 962): < 5.70
- pIC50 (SH-4): < 5.70
- pIC50 (J-RT3-T3-5): < 5.70
- pIC50 (NMC-G1): < 5.70
- pIC50 (L-428): < 5.70
- pIC50 (NCI-H720): < 5.70
- pIC50 (DU-4475): < 5.70
- pIC50 (GR-ST): < 5.70
- pIC50 (LXF-289 cell line): < 5.70
- pIC50 (MOLT-4): < 5.70
- pIC50 (BB49-HNC): < 5.70
- pIC50 (EM-2): < 5.70
- pIC50 (COLO-829): < 5.70
- pIC50 (EW-16): < 5.70
- pIC50 (no-10): < 5.70
- pIC50 (RS4-11): < 5.70
- pIC50 (MV4-11): 5.89
- pIC50 (C2BBe1): < 5.70
- pIC50 (LAN-6): < 5.70
- pIC50 (NCI-H82): < 5.70
- pIC50 (NCI-H1299): < 5.70
- pIC50 (MLMA): < 5.70

SMILES: CC(C)=CC[C@@H](O)C1=CC(=O)c2c(O)ccc(O)c2C1=O [SHIKONIN]
- pIC50 (KE-37): 6.61
- pIC50 (LS-1034): 5.56
- pIC50 (LB373-MEL-D): 6.41
- pIC50 (IST-MES1): 5.77
- pIC50 (MHH-NB-11): 6.31
- pIC50 (ML-2): 6.21
- pIC50 (SF-126): 6.11
- pIC50 (HL-60): 5.72
- pIC50 (CTB-1): 6.07
- pIC50 (ES7): 6.26
- pIC50 (MZ2-MEL): 6.41
- pIC50 (LAMA-84): 5.92
- pIC50 (HCE-T): 6.14
- pIC50 (NCI-H2126): 4.81
- pIC50 (MFH-ino): 6.06
- pIC50 (HD-MY-Z): 6.33
- pIC50 (DSH1): 4.98
- pIC50 (D-263MG): 5.65
- pIC50 (NCI-H747): 6.36
- pIC50 (SF-268): 5.25
- pIC50 (K562): < 4.80
- pIC50 (ETK-1): 5.61
- pIC50 (GT3TKB): 6.46
- pIC50 (NKM-1): 6.99
- pIC50 (PSN1): < 4.80
- pIC50 (TE-5): 6.00
- pIC50 (EC-GI-10): < 4.80
- pIC50 (BT-474): 6.68
- pIC50 (HC-1): < 4.80
- pIC50 (EW-11): 6.35
- pIC50 (NCI-H1355): 5.55
- pIC50 (DOHH-2): 6.15
- pIC50 (ONS-76): 6.45
- pIC50 (LU-134-A): 6.09
- pIC50 (HT): 5.96
- pIC50 (NCI-H526): 5.58
- pIC50 (MC116): 5.75
- pIC50 (VA-ES-BJ): 6.40
- pIC50 (OVCAR-4): 6.17
- pIC50 (NOMO-1): 5.94
- pIC50 (KS-1): 7.38
- pIC50 (L-363): < 4.80
- pIC50 (COLO-320-HSR): 6.42
- pIC50 (LS-411N): 5.50
- pIC50 (SW 962): 6.25
- pIC50 (SH-4): 6.43
- pIC50 (J-RT3-T3-5): 5.68
- pIC50 (NMC-G1): 5.89
- pIC50 (L-428): 5.92
- pIC50 (NCI-H720): < 4.80
- pIC50 (DU-4475): 6.75
- pIC50 (GR-ST): 6.99
- pIC50 (LXF-289 cell line): 5.49
- pIC50 (MOLT-4): 6.39
- pIC50 (BB49-HNC): < 4.80
- pIC50 (EM-2): 6.01
- pIC50 (COLO-829): 6.18
- pIC50 (EW-16): 6.52
- pIC50 (no-10): 6.54
- pIC50 (RS4-11): 6.38
- pIC50 (MV4-11): 6.56
- pIC50 (C2BBe1): 6.12
- pIC50 (LAN-6): 5.49
- pIC50 (NCI-H82): < 4.80
- pIC50 (NCI-H1299): 5.97
- pIC50 (MLMA): 6.27
